Molecules are shown by their SMILES. Activity calls are given as the source filed them. The calls are words filed in the database; no cut-off is given here.

The text below walks through data of ChEMBL document CHEMBL5696442, “Discovery of type II inhibitors of TGFβ-activated kinase 1 (TAK1) and mitogen-activated protein kinase kinase kinase kinase 2 (MAP4K2)” (J Med Chem, 2015).

Assay [1] concerns the target Ribosomal protein S6 kinase alpha-3 (Homo sapiens) (UniProt P51812). Put plainly: Inhibition of RSK2 domain2 Lys2 labeling site DLKPSNILYVDESGNPESIR in human Huh-7 cell lysate at 1 uM by KiNativ Profiling analysis relative to control. It is filed as subcellular.
Assay [2] concerns the target T1, Interleukin-1 receptor-associated kinase 4 (Homo sapiens) (UniProt Q9NWZ3).
T1 sequence (whole entry): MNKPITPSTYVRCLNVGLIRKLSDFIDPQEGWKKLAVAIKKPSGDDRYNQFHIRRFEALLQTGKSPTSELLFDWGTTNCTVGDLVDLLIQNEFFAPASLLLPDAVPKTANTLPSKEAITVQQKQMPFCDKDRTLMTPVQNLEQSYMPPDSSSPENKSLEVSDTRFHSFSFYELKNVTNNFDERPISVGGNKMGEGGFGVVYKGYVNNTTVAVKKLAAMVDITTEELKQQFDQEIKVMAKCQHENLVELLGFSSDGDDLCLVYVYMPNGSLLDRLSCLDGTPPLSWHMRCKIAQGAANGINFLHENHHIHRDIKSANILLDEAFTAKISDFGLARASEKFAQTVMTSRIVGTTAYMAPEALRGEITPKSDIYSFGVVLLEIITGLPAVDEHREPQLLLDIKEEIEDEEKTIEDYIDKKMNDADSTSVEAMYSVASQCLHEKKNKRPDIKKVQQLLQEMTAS
Put plainly: Inhibition of IRAK4 Lys2 labeling site in human Huh-7 cells at 1 uM by KiNativ Profiling analysis relative to control. The format is cell-based.

The nature of assay [3]: Inhibition of p70S6K Lys2 labeling site in human Huh-7 cell lysate at 1 uM by KiNativ Profiling analysis relative to control. Conditions: condition cancer.
Assay [4] addresses Epidermal growth factor receptor (Homo sapiens) (UniProt P00533). Put plainly: Inhibition of EGFR Lys1 labeling site harbouring GLWIPEGEKVKIPVAIKELR in human Huh-7 cells at 1 uM by KiNativ Profiling analysis relative to control. The format is cell-based.
The target in assay [5] is T2, Serine/threonine-protein kinase Chk1 (Homo sapiens) (UniProt O14757).
T2 sequence (whole entry): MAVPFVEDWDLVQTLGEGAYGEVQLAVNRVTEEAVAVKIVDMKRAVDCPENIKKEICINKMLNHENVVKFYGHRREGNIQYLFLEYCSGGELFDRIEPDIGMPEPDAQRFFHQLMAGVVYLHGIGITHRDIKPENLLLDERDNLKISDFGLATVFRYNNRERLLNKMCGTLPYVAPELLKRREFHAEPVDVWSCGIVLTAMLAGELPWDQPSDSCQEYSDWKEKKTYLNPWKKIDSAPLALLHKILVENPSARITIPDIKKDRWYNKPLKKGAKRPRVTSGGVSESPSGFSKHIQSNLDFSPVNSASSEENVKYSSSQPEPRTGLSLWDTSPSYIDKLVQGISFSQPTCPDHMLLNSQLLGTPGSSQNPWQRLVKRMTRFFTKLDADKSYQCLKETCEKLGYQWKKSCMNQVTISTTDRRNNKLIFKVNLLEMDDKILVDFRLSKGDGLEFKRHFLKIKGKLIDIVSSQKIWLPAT
In words: Inhibition of CHEK1 (unknown origin) at 1 uM by Ambit Kinomescan binding assay relative to control.

Assay [6] deals with Mitogen-activated protein kinase kinase kinase 19 (Homo sapiens) (UniProt Q56UN5). In words: Inhibition of YSK4 (unknown origin) at 1 uM by Ambit Kinomescan binding assay relative to control; values are per cent of control.
The target of assay [7] is 1-phosphatidylinositol 3-phosphate 5-kinase (Homo sapiens) (UniProt Q9Y2I7). Put plainly: Inhibition of PIP5K3 ATP labeling site in human A-375 cells at 5 uM by KiNativ Profiling analysis relative to control. The format is cell-based.
1-phosphatidylinositol 3-phosphate 5-kinase (Homo sapiens), sequence (Q9Y2I7 whole entry): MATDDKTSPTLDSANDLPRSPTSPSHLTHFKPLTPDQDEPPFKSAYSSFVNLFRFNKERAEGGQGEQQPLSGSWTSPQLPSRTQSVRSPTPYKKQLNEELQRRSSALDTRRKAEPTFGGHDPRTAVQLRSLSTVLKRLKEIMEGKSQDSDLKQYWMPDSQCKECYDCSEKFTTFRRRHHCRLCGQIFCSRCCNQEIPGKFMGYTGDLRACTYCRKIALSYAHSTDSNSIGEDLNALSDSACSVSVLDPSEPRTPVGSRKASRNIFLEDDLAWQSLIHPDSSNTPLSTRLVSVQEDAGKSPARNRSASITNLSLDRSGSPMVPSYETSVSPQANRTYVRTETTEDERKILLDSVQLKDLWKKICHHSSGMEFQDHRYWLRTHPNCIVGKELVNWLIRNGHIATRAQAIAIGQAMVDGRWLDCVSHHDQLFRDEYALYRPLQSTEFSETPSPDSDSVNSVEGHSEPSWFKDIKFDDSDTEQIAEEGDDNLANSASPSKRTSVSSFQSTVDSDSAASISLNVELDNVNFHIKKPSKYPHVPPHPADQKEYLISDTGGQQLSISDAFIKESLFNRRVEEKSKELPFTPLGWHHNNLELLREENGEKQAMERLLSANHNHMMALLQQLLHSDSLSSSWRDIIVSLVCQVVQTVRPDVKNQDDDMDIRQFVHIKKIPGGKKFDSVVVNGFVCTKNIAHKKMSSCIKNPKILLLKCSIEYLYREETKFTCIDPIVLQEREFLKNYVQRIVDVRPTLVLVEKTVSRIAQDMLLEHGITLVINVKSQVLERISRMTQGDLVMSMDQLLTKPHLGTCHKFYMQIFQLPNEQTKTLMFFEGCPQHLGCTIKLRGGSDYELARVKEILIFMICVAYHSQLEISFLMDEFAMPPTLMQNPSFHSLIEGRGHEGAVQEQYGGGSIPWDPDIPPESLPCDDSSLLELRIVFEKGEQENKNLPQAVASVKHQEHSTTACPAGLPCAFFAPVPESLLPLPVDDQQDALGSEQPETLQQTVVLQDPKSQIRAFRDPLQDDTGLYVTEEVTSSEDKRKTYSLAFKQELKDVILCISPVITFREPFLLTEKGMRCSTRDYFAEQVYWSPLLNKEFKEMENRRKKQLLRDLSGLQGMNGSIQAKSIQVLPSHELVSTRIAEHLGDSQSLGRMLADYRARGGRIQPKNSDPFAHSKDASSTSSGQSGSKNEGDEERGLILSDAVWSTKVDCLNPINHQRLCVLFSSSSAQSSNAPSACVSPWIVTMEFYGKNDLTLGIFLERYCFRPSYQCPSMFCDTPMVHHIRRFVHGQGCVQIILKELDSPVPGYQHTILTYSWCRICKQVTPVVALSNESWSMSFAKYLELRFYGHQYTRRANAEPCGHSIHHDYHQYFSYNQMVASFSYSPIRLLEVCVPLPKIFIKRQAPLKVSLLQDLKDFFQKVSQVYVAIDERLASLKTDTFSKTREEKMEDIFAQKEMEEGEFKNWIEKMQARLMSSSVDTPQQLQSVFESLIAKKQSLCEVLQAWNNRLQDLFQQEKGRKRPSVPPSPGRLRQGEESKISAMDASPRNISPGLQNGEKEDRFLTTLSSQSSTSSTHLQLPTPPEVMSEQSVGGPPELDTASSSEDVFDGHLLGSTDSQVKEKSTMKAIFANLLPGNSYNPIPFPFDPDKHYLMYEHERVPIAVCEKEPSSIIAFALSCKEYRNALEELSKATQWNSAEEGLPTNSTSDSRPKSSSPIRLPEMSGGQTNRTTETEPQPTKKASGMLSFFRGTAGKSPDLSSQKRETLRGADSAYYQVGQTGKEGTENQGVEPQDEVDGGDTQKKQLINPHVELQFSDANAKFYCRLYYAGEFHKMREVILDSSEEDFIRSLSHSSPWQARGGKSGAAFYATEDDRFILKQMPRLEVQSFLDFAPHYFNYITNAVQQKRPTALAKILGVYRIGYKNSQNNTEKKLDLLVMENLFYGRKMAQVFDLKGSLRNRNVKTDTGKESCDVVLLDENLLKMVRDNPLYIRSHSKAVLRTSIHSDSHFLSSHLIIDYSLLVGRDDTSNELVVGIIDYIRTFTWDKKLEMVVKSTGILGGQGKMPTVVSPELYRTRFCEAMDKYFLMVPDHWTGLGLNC
Assay [8] deals with Citron Rho-interacting kinase (Homo sapiens) (UniProt O14578). Put plainly: Inhibition of CIT (unknown origin) at 1 uM by Ambit Kinomescan binding assay relative to control.
Assay [9] has as its target Tyrosine-protein kinase receptor Tie-1 (Homo sapiens) (UniProt P35590). In words: Inhibition of TIE1 (unknown origin) at 1 uM by Ambit Kinomescan binding assay relative to control.
Assay [10] concerns the target Serine/threonine-protein kinase Nek7 (Homo sapiens) (UniProt Q8TDX7). Put plainly: Inhibition of NEK7 K1 labeling site in human Huh-7 cells at 10 uM by KiNativ Profiling analysis relative to control. It is filed as cell-based.
Assay [11] deals with T3, Phosphatidylinositol 5-phosphate 4-kinase type-2 alpha (Homo sapiens) (UniProt P48426).
T3 sequence (whole entry): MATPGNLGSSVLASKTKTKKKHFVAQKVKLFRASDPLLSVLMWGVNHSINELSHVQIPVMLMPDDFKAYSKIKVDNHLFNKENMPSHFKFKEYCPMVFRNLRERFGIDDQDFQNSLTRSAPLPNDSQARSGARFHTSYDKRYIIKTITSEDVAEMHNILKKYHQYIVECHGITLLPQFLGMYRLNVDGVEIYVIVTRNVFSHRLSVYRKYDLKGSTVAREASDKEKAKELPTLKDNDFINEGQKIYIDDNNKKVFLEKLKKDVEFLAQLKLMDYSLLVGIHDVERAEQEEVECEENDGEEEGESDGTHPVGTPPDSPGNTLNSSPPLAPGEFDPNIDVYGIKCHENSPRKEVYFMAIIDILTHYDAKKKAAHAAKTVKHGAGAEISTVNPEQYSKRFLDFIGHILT
In words: Inhibition of PIP5K2A LIP labeling site in human Huh-7 cells at 1 uM by KiNativ Profiling analysis relative to control. It is filed as cell-based.

The target of assay [12] is Focal adhesion kinase 1 (Homo sapiens) (UniProt Q05397). In words: Inhibition of FAK Lys1 labeling site in human A-375 cells at 5 uM by KiNativ Profiling analysis relative to control. It is filed as cell-based.
In assay [13] the target is Serine/threonine-protein kinase ULK2 (Homo sapiens) (UniProt Q8IYT8). In words: Inhibition of ULK2 (unknown origin) at 10 uM by Ambit Kinomescan binding assay.

Tyrosine-protein kinase receptor Tie-1 (Homo sapiens), sequence (P35590 whole entry): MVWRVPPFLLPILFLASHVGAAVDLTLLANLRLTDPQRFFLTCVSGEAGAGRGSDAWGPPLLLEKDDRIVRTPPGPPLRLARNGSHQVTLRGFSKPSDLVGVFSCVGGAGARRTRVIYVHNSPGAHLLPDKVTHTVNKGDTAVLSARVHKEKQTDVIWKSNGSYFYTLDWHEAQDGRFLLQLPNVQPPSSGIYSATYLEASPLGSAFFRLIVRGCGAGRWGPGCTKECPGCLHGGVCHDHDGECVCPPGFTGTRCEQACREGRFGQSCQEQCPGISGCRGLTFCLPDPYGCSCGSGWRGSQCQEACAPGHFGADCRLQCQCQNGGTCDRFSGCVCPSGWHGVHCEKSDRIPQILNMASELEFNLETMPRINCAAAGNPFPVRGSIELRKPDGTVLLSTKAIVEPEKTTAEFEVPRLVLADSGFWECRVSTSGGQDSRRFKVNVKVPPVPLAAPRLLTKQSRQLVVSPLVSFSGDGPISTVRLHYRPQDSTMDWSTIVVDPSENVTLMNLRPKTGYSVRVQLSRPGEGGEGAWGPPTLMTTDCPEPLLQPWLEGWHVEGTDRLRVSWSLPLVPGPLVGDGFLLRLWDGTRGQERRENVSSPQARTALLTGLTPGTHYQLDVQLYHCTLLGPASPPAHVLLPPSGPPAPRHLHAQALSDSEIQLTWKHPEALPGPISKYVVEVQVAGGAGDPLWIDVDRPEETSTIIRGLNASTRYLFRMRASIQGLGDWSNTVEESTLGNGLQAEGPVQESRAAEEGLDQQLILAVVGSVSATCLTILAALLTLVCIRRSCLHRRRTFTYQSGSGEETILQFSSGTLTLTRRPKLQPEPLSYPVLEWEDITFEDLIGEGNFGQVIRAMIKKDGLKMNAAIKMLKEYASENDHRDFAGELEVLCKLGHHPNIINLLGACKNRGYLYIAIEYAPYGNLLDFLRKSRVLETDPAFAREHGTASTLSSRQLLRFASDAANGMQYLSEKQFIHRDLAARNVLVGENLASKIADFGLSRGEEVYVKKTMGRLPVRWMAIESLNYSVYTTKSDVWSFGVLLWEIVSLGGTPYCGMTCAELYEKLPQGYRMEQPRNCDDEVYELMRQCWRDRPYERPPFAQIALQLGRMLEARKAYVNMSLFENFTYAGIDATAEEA
Ribosomal protein S6 kinase alpha-3 (Homo sapiens), sequence (P51812 whole entry, the tested form may be a part): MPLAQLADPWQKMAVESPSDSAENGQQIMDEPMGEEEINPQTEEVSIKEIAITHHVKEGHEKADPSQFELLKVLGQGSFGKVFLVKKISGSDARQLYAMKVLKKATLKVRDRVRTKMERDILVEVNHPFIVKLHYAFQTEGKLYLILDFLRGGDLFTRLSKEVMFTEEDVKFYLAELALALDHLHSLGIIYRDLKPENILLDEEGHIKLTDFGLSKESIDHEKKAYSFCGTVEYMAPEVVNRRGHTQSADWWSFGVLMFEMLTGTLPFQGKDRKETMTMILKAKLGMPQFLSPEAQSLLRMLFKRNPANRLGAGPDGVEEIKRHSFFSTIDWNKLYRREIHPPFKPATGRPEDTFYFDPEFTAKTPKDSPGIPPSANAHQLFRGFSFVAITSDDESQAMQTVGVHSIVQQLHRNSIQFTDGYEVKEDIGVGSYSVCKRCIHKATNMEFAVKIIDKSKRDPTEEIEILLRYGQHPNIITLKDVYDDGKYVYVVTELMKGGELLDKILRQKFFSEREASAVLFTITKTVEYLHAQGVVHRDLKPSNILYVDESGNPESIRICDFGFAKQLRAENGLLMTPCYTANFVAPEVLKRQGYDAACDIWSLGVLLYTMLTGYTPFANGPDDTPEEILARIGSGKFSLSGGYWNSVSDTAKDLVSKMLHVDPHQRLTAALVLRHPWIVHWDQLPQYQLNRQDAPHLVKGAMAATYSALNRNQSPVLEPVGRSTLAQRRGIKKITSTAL
Serine/threonine-protein kinase Nek7 (Homo sapiens), sequence (Q8TDX7 whole entry, looked up): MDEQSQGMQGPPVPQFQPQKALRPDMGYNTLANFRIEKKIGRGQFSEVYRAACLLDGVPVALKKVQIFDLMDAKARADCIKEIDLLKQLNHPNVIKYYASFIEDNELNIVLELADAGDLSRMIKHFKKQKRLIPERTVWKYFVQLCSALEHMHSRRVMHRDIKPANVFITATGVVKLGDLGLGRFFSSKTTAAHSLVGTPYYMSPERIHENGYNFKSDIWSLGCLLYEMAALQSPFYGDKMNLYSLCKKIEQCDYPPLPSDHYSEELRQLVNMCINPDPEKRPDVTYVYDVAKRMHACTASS

The inhibition is the drop in the measured response relative to a control, in per cent. With `CNc1cc(Oc2cc(C(=O)Nc3cc(N4CCN(C)CC4)cc(C(F)(F)F)c3)ccc2C)ncn1`, the inhibition in assay [1] was 0.2%; in assay [2] it was 0.4%; in assay [4], -5.2%. Besides, the inhibition at 1 µM in assay [3] stood at 4.9%.
For the molecule `CCN1CCN(Cc2ccc(NC(=O)c3ccc(C)c(/C=C/c4cnc5[nH]ccc5c4OC)c3)cc2C(F)(F)F)CC1`, the inhibition turned out to be 100% in assay [5], 7.6% in assay [7], 4.6% in [8] and 0.95% in assay [9]. In [6], this molecule came in with a percent of control of 1.1%.
In the case of `CCN1CCN(Cc2ccc(NC(=O)c3ccc(C)c(Oc4ccnc5[nH]ccc45)c3)cc2C(F)(F)F)CC1`, the inhibition in assay [10] was -8.8%; in assay [11] it was -0.3%; in [12] it was 13.8%. In [13], the inhibition result is “inactive”.
